Source: patent US20210221848A1, “POLYMYXIN DERIVATIVES AND THEIR USE IN COMBINATION THERAPY TOGETHER WITH DIFFERENT ANTIBIOTICS” (priority 2014, published 2021)
Where two headings read alike, the source gives them in different places.

Assays:
[1] = system: P. aeruginosa strains with elevated MICs to Polymyxin B; experiment: MIC against strains with elevated MICs to Polymyxin B; format: cell-based, Pseudomonas aeruginosa; details: for MIC P. aeruginosa 065: strain 065, elevated MIC to Polymyxin B; for MIC P. aeruginosa 066: strain 066, elevated MIC to Polymyxin B; for MIC P. aeruginosa 067: strain 067, elevated MIC to Polymyxin B
Outline: (§1)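 Reported MIC is the lower of duplicates agreeing within 2-fold, or the mode where compounds were tested repeatedly. Assays with greater than 2-fold duplicate variation were rejected. Colonies grown 18-24 hours on Mueller-Hinton agar were suspended to 0.5 McFarland as inoculum.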

[2] = system: A. baumanii strains with elevated MICs to Polymyxin B; experiment: MIC against strains with elevated MICs to Polymyxin B; format: cell-based, Acinetobacter baumannii
Outline: as §1

[3] = system: K. pneumoniae strains with elevated MICs to Polymyxin B; experiment: as above; format: cell-based, Klebsiella pneumoniae; details: for MIC K. pneumoniae 062: strain 062, elevated MIC to Polymyxin B; for MIC K. pneumoniae 063: strain 063, elevated MIC to Polymyxin B; for MIC K. pneumoniae 064: strain 064, elevated MIC to Polymyxin B; for MIC K. pneumoniae 655: strain 655, elevated MIC to Polymyxin B
Outline: as §1

[4] = system: E. coli strains with elevated MICs to Polymyxin B; experiment: as above; format: cell-based, Escherichia coli; details: for MIC E. coli 058: strain 058, elevated MIC to Polymyxin B; for MIC E. coli 059: strain 059, elevated MIC to Polymyxin B; for MIC E. coli 060: strain 060, elevated MIC to Polymyxin B; for MIC E. coli 061: strain 061, elevated MIC to Polymyxin B
Outline: as §1

P. aeruginosa ATCC 27853 = experiment: In vivo efficacy, thigh infection in mice, IV dosing, 9 h model; set-up: species or system Pseudomonas aeruginosa; details: mouse thigh
Experimental: Compounds were administered in solution by intravenous (IV) bolus injection into the lateral tail vein. […] At 1 hour post infection, 4 animals were humanely euthanized using pentabarbitone overdose to provide a pre-treatment control group. At 9 hours post infection, the clinical condition of all animals was assessed prior to them being humanely euthanized by pentabarbitone overdose. Animal weight was determined before both thighs were removed and weighed individually. Individual thigh tissue samples were homogenized in ice cold sterile phosphate buffered saline. Thigh homogenates were then quantitatively cultured onto cystine lactose electrolyte deficient (CLED) agar and incubated at 37° C. for 24 hours before colonies were counted.

## Polymyxin B [PMB, reference compound]
[1]; Table 6D
  MIC P. aeruginosa 065: 4 micrograms/mL
  MIC P. aeruginosa 066: 8 micrograms/mL
  MIC P. aeruginosa 067: 128 micrograms/mL
[1]; Table 6F
  MIC P. aeruginosa 065: 4 micrograms/mL
  MIC P. aeruginosa 066: 8 micrograms/mL
  MIC P. aeruginosa 067: 128 micrograms/mL
E. coli; E. coli ATCC 25922
  MIC: 0.25 µg/mL
E. coli; E. coli ATCC 25922, absence of a second agent, Table 6B
  MIC, E. coli ATCC 25922: 0.25 micrograms/mL
E. coli; E. coli NCTC 13441
  MIC: 0.25 µg/mL
E. coli; E. coli NCTC 13441, absence of a second agent, Table 6B
  MIC, E. coli NCTC 13441: 0.25 micrograms/mL
E. coli; strain ATCC 25922, compound alone
  MIC, E. coli ATCC 25922: 0.25 micrograms/mL
E. coli; strain CCUG 59342, compound alone
  MIC E. coli CCUG 59342: 0.125 micrograms/mL
[2]; strain 053, elevated MIC to Polymyxin B, Table 6D
  MIC A. baumannii 053: 128 micrograms/mL
[2]; strain 053, elevated MIC to Polymyxin B, Table 6F
  MIC A. baumanii 053: 128 micrograms/mL
[2]; strain 056, elevated MIC to Polymyxin B, Table 6D
  MIC A. baumannii 056: 32 micrograms/mL
[2]; strain 056, elevated MIC to Polymyxin B, Table 6F
  MIC A. baumanii 056: 32 micrograms/mL
[2]; strain 068, elevated MIC to Polymyxin B, Table 6D
  MIC A. baumannii 068: 8 micrograms/mL
[2]; strain 068, elevated MIC to Polymyxin B, Table 6F
  MIC A. baumanii 068: 8 micrograms/mL
[2]; strain 070, elevated MIC to Polymyxin B, Table 6D
  MIC A. baumannii 070: 32 micrograms/mL
[2]; strain 070, elevated MIC to Polymyxin B, Table 6F
  MIC A. baumanii 070: 32 micrograms/mL
[3]; Table 6D
  MIC K. pneumoniae 062: 128 micrograms/mL
  MIC K. pneumoniae 063: 32 micrograms/mL
  MIC K. pneumoniae 064: 8 micrograms/mL
  MIC K. pneumoniae 655: 32 micrograms/mL
[3]; Table 6F
  MIC K. pneumoniae 062: 128 micrograms/mL
  MIC K. pneumoniae 063: 32 micrograms/mL
  MIC K. pneumoniae 064: 8 micrograms/mL
  MIC K. pneumoniae 655: 32 micrograms/mL
[4]; Table 6D
  MIC E. coli 058: 4 micrograms/mL
  MIC E. coli 059: 4 micrograms/mL
  MIC E. coli 060: 4 micrograms/mL
  MIC E. coli 061: 16 micrograms/mL
[4]; Table 6F
  MIC E. coli 058: 4 micrograms/mL
  MIC E. coli 059: 4 micrograms/mL
  MIC E. coli 060: 4 micrograms/mL
  MIC E. coli 061: 16 micrograms/mL
P. aeruginosa ATCC 27853; dose 0.85 mg/kg drug base IV at 1, 3.5 and 6 h post-infection
  Log reduction from vehicle (CFU/g): 1.19 log10 CFU/g
P. aeruginosa ATCC 27853; dose 3.4 mg/kg drug base IV at 1, 3.5 and 6 h post-infection
  Log reduction from vehicle (CFU/g): 4.23 log10 CFU/g
